Test results taken from the NIST ThermoML archive (doi:10.1016/j.jct.2018.02.001).
Numbers after ± are expanded uncertainties.

Columns and labels:
[1] = 101.33 kPa, Liquid, Vibrating tube method
[2] = mn = molality of the nth substance listed, in mol/kg; details: 100 kPa, Liquid, Vibrating tube method

CCCCCCCC[n+]1ccn(CC)c1.[Br-] [1-ethyl-3-octyl-1H-imidazolium bromide]
[1]
Details	mass density [kg/m3]
293.15 K	1148.89 ± 1.9
298.15 K	1145.43 ± 1.9
303.15 K	1141.74 ± 1.8
308.15 K	1138.13 ± 1.8
313.15 K	1134.69 ± 1.8
318.15 K	1131.07 ± 1.8
323.15 K	1127.5 ± 1.8

CCCCCCCC[n+]1ccn(CC)c1.[Br-] [1-ethyl-3-octyl-1H-imidazolium bromide] + O
mass density [kg/m3], [2]
Details	293.15 K	298.15 K	303.15 K	308.15 K
m1 = 0.0128	998.68 ± 1.5	997.48 ± 1.5	995.95 ± 1.5	994.18 ± 1.5
m1 = 0.0143	998.75 ± 1.5	997.55 ± 1.5	996.03 ± 1.5	994.25 ± 1.5
m1 = 0.0149	998.78 ± 1.5	997.58 ± 1.5	996.06 ± 1.5	994.27 ± 1.5
m1 = 0.0171	998.87 ± 1.5	997.68 ± 1.5	996.14 ± 1.5	994.36 ± 1.5
m1 = 0.0206	999.02 ± 1.5	997.83 ± 1.5	996.29 ± 1.5	994.5 ± 1.5
m1 = 0.0216	999.07 ± 1.5	997.87 ± 1.5	996.33 ± 1.5	994.55 ± 1.5
m1 = 0.026	999.25 ± 1.5	998.06 ± 1.5	996.51 ± 1.5	994.71 ± 1.5
m1 = 0.0313	999.47 ± 1.5	998.28 ± 1.5	996.73 ± 1.5	994.91 ± 1.5
m1 = 0.0355	999.65 ± 1.5	998.45 ± 1.5	996.91 ± 1.5	995.08 ± 1.5
m1 = 0.0377	999.74 ± 1.5	998.54 ± 1.5	997 ± 1.5	995.16 ± 1.5
m1 = 0.0436	999.99 ± 1.5	998.77 ± 1.5	997.24 ± 1.5	995.39 ± 1.5

CCCCCCCCCCCC[n+]1ccn(CC)c1.[Br-] [3-dodecyl-1-ethyl-1H-imidazolium bromide]
[1]
Details	mass density [kg/m3]
293.15 K	1084.31 ± 1.5
298.15 K	1080.97 ± 1.5
303.15 K	1077.53 ± 1.5
308.15 K	1074.03 ± 1.5
313.15 K	1070.48 ± 1.5
318.15 K	1066.96 ± 1.5
323.15 K	1063.43 ± 1.5

CCCCCCCCCCCC[n+]1ccn(CC)c1.[Br-] [3-dodecyl-1-ethyl-1H-imidazolium bromide] + O
mass density [kg/m3], [2]
Details	m1 = 0.0061	m1 = 0.0074	m1 = 0.0109	m1 = 0.015	m1 = 0.021	m1 = 0.0257	m1 = 0.0362	m1 = 0.0521
293.15 K	998.38 ± 1.5	998.42 ± 1.5	998.52 ± 1.5	998.64 ± 1.5	998.81 ± 1.5	998.94 ± 1.5	999.24 ± 1.5	999.68 ± 1.5
298.15 K	997.16 ± 1.5	997.19 ± 1.5	997.27 ± 1.5	997.38 ± 1.5	997.53 ± 1.5	997.65 ± 1.5	997.91 ± 1.5	998.31 ± 1.5
303.15 K	995.65 ± 1.5	995.68 ± 1.5	995.73 ± 1.5	995.83 ± 1.5	995.99 ± 1.5	996.12 ± 1.5	996.37 ± 1.5	996.72 ± 1.5
